Laboratory results taken from patent US20220251036A1, “DIFLUOROHALOALLYLAMINE SULFONE DERIVATIVE INHIBITORS OF LYSYL OXIDASES, METHODS OF PREPARATION, AND USES THEREOF” (PHARMAXIS LTD., priority 2019, published 2022).
pIC50: −log10 of the molar value. Counter-ions that a name gives are not always drawn.

How the values were obtained:
[1] = target: T1, Bovine LOX (Bos taurus, UniProt P33072); experiment: LOX inhibition, Amplex Red oxidation assay; type: biochemical; conditions: for pIC50: incubation with enzyme 30 min at 37° C, read-out: Bovine LOX Activity IC50
T1 sequence (P33072 170-418): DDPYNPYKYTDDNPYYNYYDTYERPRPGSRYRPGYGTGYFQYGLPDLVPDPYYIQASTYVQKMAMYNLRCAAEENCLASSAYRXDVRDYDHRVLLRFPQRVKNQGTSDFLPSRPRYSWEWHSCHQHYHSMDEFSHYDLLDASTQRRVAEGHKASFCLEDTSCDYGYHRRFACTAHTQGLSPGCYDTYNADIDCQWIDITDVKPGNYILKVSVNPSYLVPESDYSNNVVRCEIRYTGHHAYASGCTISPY
Experimental: (§1) LOX and LOXL protein family members can be acquired as recombinant active proteins from commercial sources, or extracted from animal tissues like bovine aorta, tendons, pig skin; or prepared from cell cultures. […] The assay was developed using either 384 or 96 well format. Briefly, in a standard black, clear bottom 384 well plate assay 25 μL of a dilution of any of the isoenzymes and orthologues in 1.2 M urea, 50 mM sodium borate buffer (pH 8.2) were added into each well in the presence of 1 μM mofegiline and 0.5 mM pargyline (to inhibit SSAO and MAO-B and MAO-A, respectively; not necessary if the enzyme is from a recombinant or purified form). Test compounds were dissolved in DMSO and tested in a Concentration Response Curve (CRC) with 11 data points, typically in the micromolar or nanomolar range after incubation with the enzyme for 30 min at 37° C. 25 μL of a reaction mixture containing twice the KM concentration of putrescine (Sigma Aldrich, e.g. 20 mM for LOX and LOXL1 or 10 mM for LOXL2 and 4 mM for LOXL3 and LOXL4), 120 μM Amplex Red (Sigma Aldrich) and 1.5 U/mL horseradish peroxidase (Sigma Aldrich) prepared in 1.2 M urea, 50 mM sodium borate buffer (pH 8.2) were then added to the corresponding wells. The above volumes were doubled in the case of 96 wells plate. The fluorescence (RFU) was read every 2.5 min for 30 min at […] 37° C., excitation 565 nm and emission 590 (Optima; BMG labtech). The slope of the kinetics for each well was calculated using MARS data analysis software (BMG labtech) and this value was used to deduce the IC50 value (Dotmatics). The ability of the inventive compounds to inhibit the amine oxidase activity of LOX and other family members is shown in Table 4.

[2] = target: T2, Human recombinant LOXL2 (Homo sapiens, UniProt Q9Y4K0); experiment: LOXL2 inhibition, Amplex Red oxidation assay; type: biochemical; conditions: incubation with enzyme 30 min at 37° C; read-out: Human recombinant LOXL2 Activity IC50
T2 sequence (Q9Y4K0 26-774): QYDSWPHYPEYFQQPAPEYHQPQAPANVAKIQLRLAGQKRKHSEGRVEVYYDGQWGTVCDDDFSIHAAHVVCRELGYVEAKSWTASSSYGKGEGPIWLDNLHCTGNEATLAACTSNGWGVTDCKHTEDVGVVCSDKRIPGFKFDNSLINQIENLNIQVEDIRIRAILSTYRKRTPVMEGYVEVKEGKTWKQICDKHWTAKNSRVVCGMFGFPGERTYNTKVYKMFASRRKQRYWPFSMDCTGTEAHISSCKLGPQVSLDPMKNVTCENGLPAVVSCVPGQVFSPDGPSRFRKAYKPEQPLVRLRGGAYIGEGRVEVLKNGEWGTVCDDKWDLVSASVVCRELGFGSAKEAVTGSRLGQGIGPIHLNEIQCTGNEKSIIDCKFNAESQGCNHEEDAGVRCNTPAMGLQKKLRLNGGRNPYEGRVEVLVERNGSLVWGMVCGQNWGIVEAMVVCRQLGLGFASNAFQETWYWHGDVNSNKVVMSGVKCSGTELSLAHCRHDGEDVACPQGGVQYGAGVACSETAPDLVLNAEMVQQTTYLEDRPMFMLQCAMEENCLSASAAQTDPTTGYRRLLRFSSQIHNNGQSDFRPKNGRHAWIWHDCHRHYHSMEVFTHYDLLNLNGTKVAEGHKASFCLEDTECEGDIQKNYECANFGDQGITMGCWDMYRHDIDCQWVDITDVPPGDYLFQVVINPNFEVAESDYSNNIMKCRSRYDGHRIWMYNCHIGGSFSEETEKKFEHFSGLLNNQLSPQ
Experimental: as §1

Row | Structure (SMILES) | pIC50 [1] | pIC50 [2] | inhibitory activity (in words) ([1]; LOX / LOXL preparations, compared with Compound 1)
1 | NC/C=C(/F)C(F)(F)S(=O)(=O)c1ccccc1 [Compound 1(E)] | 4.64 | 5.68 | significantly reduced inhibitory activity
2 | CS(=O)(=O)c1cccc(S(=O)(=O)C(F)(F)/C(F)=C/CN)c1 [Compound 3, (Z)-3,4,4-trifluoro-4-((3-(methylsulfonyl)phenyl)sulfonyl)but-2-en-1-amine] | 4.95 | 6.15 | –
3 | NC/C=C(\F)C(F)(F)S(=O)(=O)c1ccccc1N1CCS(=O)(=O)CC1 [Compound 7, (Z)-4-(2-((4-amino-1,1,2--trifluorobut-2-en-1-yl)sulfonyl)phenyl)thiomorpholine 1,1-dioxide, hydrochloride] | 4.64 | 5.70 | –
4 | NC/C=C(\F)C(F)(F)S(=O)(=O)c1ccccc1O [Compound 11, (Z)-2-((4-amino-1,1,2-trifluorobut-2-en-1-yl)sulfonyl)phenol] | < 4.52 | 5.77 | –

More lines, main results first:

Row | pIC50 [1] | pIC50 [2] | Structure (SMILES) | inhibitory activity (in words) ([1]; LOX / LOXL preparations, compared with Compound 1)
5 | 5.41 | 6.30 | Cc1cccc(S(=O)(=O)C(F)(F)/C(F)=C/CN)c1 [Compound 13, (Z)-3,4,4-trifluoro-4-(m-tolylsulfonyl)but-2-en-1-amine] | –
6 | 5.23 | 6.15 | Cc1occc1S(=O)(=O)C(F)(F)/C(F)=C/CN [Compound 15, (Z)-3,4,4-trifluoro-4-((2-methylfuran-3-yl)sulfonyl)but-2-en-1-amine] | –
7 | 5.44 | 6.15 | [2H]c1c([2H])c([2H])c(S(=O)(=O)C(F)(F)/C(F)=C/CN)c([2H])c1[2H] [Compound 18, (Z)-3,4,4-trifluoro-4-((phenyl-d5)sulfonyl)but-2-en-1-amine] | –
8 | 5.36 | – | CS(=O)(=O)c1cccc(Oc2cccc(S(=O)(=O)C(F)(F)/C(F)=C/CN)c2)c1 [Compound 20, (Z)-3,4,4-trifluoro-4-((3-(3-(methylsulfonyl)phenoxy)phenyl)sulfonyl)but-2-en-1-amine] | –
